From patent US5063225A, “Benzothiazepines” (Roussel Uclaf, priority 1989, dated 1991)
Structures can show the parent of a compound that is named as a salt. Where two headings read alike, the source gives them in different places.

Key:
[1] = tested on: broncho-constriction induced by serotonin; assay: Anti-serotoninergic activity: broncho-constriction in a guinea-pig induced by serotonin; type: in vivo; details: 1 mg/kg injected via jugular vein one minute before serotonin (3 to 5 micrograms/kg IV)
Description: 3) Test for Anti-Serotoninergic Activity Broncho-constriction in a guinea-pig induced by serotonin. The pulmonary resistance to insufflation was measured by the technique of "overflow" according to KONZETT et al [Arch. Ex. Pathol. Pharmakol, 1940, Vol. 195, p. 71]. The guinea-pigs were anaesthetized with urethane and the jugular vein was catherized to inject the products, and the trachea was catheterized to insert artificial ventilation. Broncho-constriction was induced by a dose of 3 to 5 micrograms/kg of serotonin injected intravenously and the antagonists were injected one minute before the induction of the broncho-spasm. It can be noted from the results of the table below that the products of the present Application have a strong anti-serontoninergic activity.

mouse = assay: Study of the acute toxicity; type: in vivo; details: single administration
Description: 4) Study of the Acute Toxicity
The lethal doses LD of the various compounds under test were evaluated after a single administration intraperitoneally or orally to a mouse.

[2] = tested on: blood-platelets (rabbit PRP); assay: Blood-platelet aggregation, in vitro, on plasma rich in blood-platelets (PRP); type: cell-based; details: Oryctolagus cuniculus, 2 min, 2 minutes incubation, read-out: IC50 (concentration inhibiting the aggregation by 50%)
Text: 2) Test for the Activity of Anti-Aggregation of Blood-Platelets. Blood-Platelet Aggregation, In Vitro, on Plasma Rich in Blood-Platelets (PRP)
Measurement of blood-platelet aggregation was made by the turbidimetric method of Born et al 1963, J. Physiol., Vol. 168, p. 178. Rabbit's blood was removed on Na citrate at 3.2% by cardiac puncture and the plasma rich in blood-platelets was obtained by centrifuging and adjustment of the number of blood-platelets to 300,000 per microliter. The aggregation was induced by collagen (40 micrograms per ml of PRP) or PAF acether (0.05 micromoles per liter of PRP). The compounds under test were incubated at different concentrations in the PRP 2 minutes before the aggregating agent. The results were expressed in IC50 (concentration inhibiting the aggregation by 50% relative to the control curves).

[3] = tested on: ventricular extrasystoles initiated by aconitine in rats; assay: Anti-arhythmic action in the rat (aconitine-induced ventricular extrasystoles); type: in vivo; details: relative to control animals
Description: 1) Anti-arhythmic action in the rat
Male rats weighing 300-350 g, anaesthetized by intraperitoneal route using 1.20 g/kg of urethane, were tracheotomized and subjected to artificial respiration (40-50 insufflations of 3 ml/minute). Needles were implanted subcutaneously to record the electro-cardiogram of the rats on the signal in the DII derivation. The products under test were administered by intravenous route or by oral route. After five minutes in the case of administration intravenously and one hour in the case of oral administration, the jugular vein of the rats was perfused with 10 micrograms/min. under 0.2 ml of an aconitine solution. The time taken for the first ventricular extrasystoles to appear was noted and the amount of aconitine perfused was calculated, then expressed as a function of the body weight of the animal.
The percentage of increase of the aconitine dose necessary to initiate the ventricular extrasystoles after treatment was calculated relative to the control animals.

[4] = induction by PAF-ACETHER (0.05 micromoles per liter of PRP)
[5] = induction by collagen (40 micrograms per ml of PRP)
[6] = IV, 5 mg/kg, five minutes before aconitine
[7] = oral (O), 25 mg/kg, one hour before aconitine

Structure (SMILES)	Percentage of inhibition of the broncho-constriction [1] [%]	LD0 (maximum dose which did not cause any deaths over 8 days) (mouse; IP) [mg/kg]	LD0 (maximum dose which did not cause any deaths over 8 days) (mouse; oral (O)) [mg/kg]	IC50 [2, 4] [µM]	IC50 [2, 5] [µM]	Percentage of increase of the aconitine dose for initiating the extrasystoles [3, 6] [%]	Percentage of increase of the aconitine dose for initiating the extrasystoles [3, 7] [%]
CCN(CC)CCN1C(=O)C(c2ccc(OC)cc2)CSc2ccccc21.O=C(O)C(=O)O (stereo not shown) [Example 5, 5-[2-(diethylamino)-ethyl]-2,3-dihydro-3-(4-methoxyphenyl)-1,5-benzothiazepin-4(5H)-one ethanedioate]	87	–	–	–	–	–	–
COc1ccccc1C1CSc2ccccc2N(CCN(C)C)C1=O.Cl (stereo not shown) [Example 12, 2,3-dihydro-5-[2-(dimethylamino)-ethyl]-3-(2-methoxy-phenyl)-1,5-benzothiazepin-4(5H)-one hydrochloride]	64	100	> 200	9	56	–	–
COc1ccc(C2CSc3ccccc3N(CCCN(C)C)C2=O)cc1 (stereo not shown) [Example 6, 2,3-dihydro-5-[3-(dimethylamino)-propyl]-3-(4-methoxyphenyl)-1,5-benzothiazepin-4(5H)-one (E)-butenedioate]	–	100	100	–	–	142	> 188
COc1ccc(C2CSc3ccccc3N(CCN3CCCC3)C2=O)cc1 (stereo not shown) [Example 1, 2,3-dihydro-3-(4-methoxy-phenyl)-5-[2-(1-pyrrolidinyl)-ethyl]-1,5-benzothiazepin-4(5H)-one (Z)-2-butenedioate]	79	–	–	78	74	–	–
COc1ccc(C2CSc3ccccc3N(CCN(C(C)C)C(C)C)C2=O)cc1 (racemic) [Example 9, (±)-5-[2-[[bis(1-methylethyl)]-amino]-ethyl]-2,3-dihydro-3-(4-methoxyphenyl)-1,5-benzothiazepin-4(5H)-one hydrochloride]	–	–	–	58	66	–	–
CN(C)CCN1C(=O)C(c2ccc(Cl)cc2)CSc2ccccc21.Cl (stereo not shown) [Example 11, 3-(4-chloro-phenyl)-2,3-dihydro-5-[2-(dimethylamino)-ethyl]-1,5-benzothiazepin-4(5H)-one hydrochloride]	82	80	100	40	8	32	135
COc1ccc(C2CSc3ccccc3N(CCN(C)C)C2=O)cc1 (stereo not shown) [Example 13, 2,3-dihydro-5-8 2-(dimethylamino)-ethyl]-3-(4-methoxy phenyl)-1,5-benzothiazepin-4(5H)-one (E)-2-butenedioate]	87	80	> 200	–	–	24	35
COc1ccc(C2CSc3ccccc3N(CCN3CCN(C)CC3)C2=O)cc1 (stereo not shown) [Example 7, 2,3-dihydro-3-(4-methoxyphenyl)-5-[2-(4-methyl-1-piperazinyl)-ethyl]-1,5-benzothiazepin-4(5H)-one dichlorhydrate]	–	100	100	–	–	25	129
